We go through 1 molecule from patent US20070225388A1, “Porous Bodies and Method of Production Thereof” (priority 2004, published 2007).

This data set can be described thus: Dispersion of material on exposure to aqueous medium (visual). It counts as physicochemical. To be noted: dye not incorporated into a porous body.

For `CCNc1ccc2ccccc2c1N=Nc1ccc(N=Nc2ccccc2)cc1` [Fat red 7B dye], the “dispersion or solubility of the dye alone in water” value is reported as “particles of dye remained at the bottom of the vessel”.
